Columns and labels:
Format in all cases: cell-based, human
[1] = test system: pancreatic ductal adenocarcinoma (CFPAC-1) cells; test: Antiproliferative MTT assay, CFPAC-1; settings: for IC50: 72 h incubation, MTT, mean ± SD; for SI (CFPAC-1): SI = [IC50 HFF]/[IC50 CFPAC-1]
Procedure: (§1) The human ATCC tumor cell lines breast adenocarcinoma (MCF7), colorectal carcinoma (HT-29), pancreatic ductal adenocarcinoma (CFPAC-1), hepatocellular carcinoma (HepG2), and normal skin fibroblasts (HFF) derived from ATCC (American Type Culture Collection) were cultured in Dulbecco’s Modified Eagle Medium (DMEM) or Minimum Essential Medium (MEM) supplemented with 10% fetal bovine serum (FBS), 2 mM L-glutamine, 100 U/mL penicillin, and 100 µg/mL streptomycin (Lonza, Basel, Switzerland) in a humidified atmosphere with 5% CO2 at 37 °C. For the experiment, carcinoma cell lines and normal human cell lines were seeded in 96-well microtiter plates at a density of 3000 cells per well and 5000 cells per well, respectively, depending on the doubling time of the specific cell line. The test substances were then added at fivefold, tenfold dilutions (0.01 to 100 µM), freshly prepared in the growth medium on the day of testing, and incubated for a further 72 h. After 72 h of incubation, the growth rate of the cells was determined using the MTT assay according to the manufacturer’s guidelines. […] The IC50 values were calculated from the dose–response curves using linear regression analysis. The experiment was performed in tetraplicates in two individual experiments.
(§2) Newly synthesized compounds were evaluated for their cytotoxic activity in vitro against four human cancer cell lines, including human breast adenocarcinoma (MCF-7), ductal pancreatic adenocarcinoma (CFPAC-1), colorectal carcinoma (HT-29), and hepatocellular carcinoma (HepG2), as well as on non-cancerous skin fibroblasts (HFF-1), to check for non-specific toxicity. Furthermore, 5-Fluorouracil (5-FU) was used as a reference drug. The results are expressed as 50% inhibitory concentration (IC50) values and are listed in Table 2, Table 3, Table 4 and Table 5.

[2] = test system: normal skin fibroblasts (HFF-1); test: Cytotoxicity MTT assay, normal skin fibroblasts; settings: 72 h incubation, mean ± SD
Procedure: as §1, §2

[3] = test system: hepatocellular carcinoma (HepG2) cells; test: Antiproliferative MTT assay, HepG2; settings: for IC50: Homo sapiens, HepG2, 72 h, 72 h incubation, MTT, mean ± SD; for SI (HepG2): SI = [IC50 HFF]/[IC50 HepG2]
Procedure: as §1, §2

[4] = test system: colorectal carcinoma (HT-29) cells; test: Antiproliferative MTT assay, HT-29; settings: for IC50: 72 h incubation, MTT, mean ± SD; for SI (HT-29): SI = [IC50 HFF]/[IC50 HT-29]
Procedure: as §1, §2

[5] = test system: breast adenocarcinoma (MCF7) cells; test: Antiproliferative MTT assay, MCF-7; settings: for IC50: Homo sapiens, MCF7, 72 h incubation, MTT, mean ± SD
Procedure: as §1, §2

| SMILES | IC50 [1] [µM] | IC50 ([1]; Homo sapiens, CFPAC-1, 72 h) [µM] | IC50 [2] [µM] | IC50 ([2]; Homo sapiens, HFF-1, 72 h) [µM] | IC50 [3] [µM] | SI (HepG2) [3] | IC50 [4] [µM] | IC50 ([4]; Homo sapiens, HT-29, 72 h) [µM] | SI (HT-29) [4] | IC50 [5] [µM] | SI (MCF-7) ([5]; SI = [IC50 HFF]/[IC50 MCF-7]) | SI (CFPAC-1) [1] |
| --- | --- | --- | --- | --- | --- | --- | --- | --- | --- | --- | --- | --- |
| O=c1[nH]cc(F)c(=O)[nH]1 [Compound 5-FU, 5-Fluorouracil, reference compound] | 0.1 ± 0.1 | 0.14 ± 0.1 | 0.9 | 0.94 | 9 ± 1.3 | 0.1 | 0.2 | 0.23 | 4.5 | 1 ± 0.8 | 0.9 | – |
| OCC(c1ccc(F)cc1)n1cc(Cn2ccc3ccccc32)nn1 (stereo not shown) [Compound 27a, 1-((1-(2-Hydroxy-1-(4-fluorophenyl)ethyl)-1H-1,2,3-triazol-4-yl)methyl)-1H-indole] | – | 68 ± 12.7 | – | 42 ± 10.5 | 49 ± 2.5 | – | – | 47 ± 16.9 | – | 51 ± 6.7 | – | 0.6 |
| OC(Cn1cc(Cn2ccc3ccccc32)nn1)c1ccc(F)cc1 (stereo not shown) [Compound 27b, 1-((1-(2-Hydroxy-2-(4-fluorophenyl)ethyl)-1H-1,2,3-triazol-4-yl)methyl)-1H-indole] | – | > 100 | – | > 100 | > 100 | – | – | > 100 | – | > 100 | – | – |
| OCC(c1ccc(Cl)cc1)n1cc(Cn2ccc3ccccc32)nn1 (stereo not shown) [Compound 28a, 1-((1-(2-Hydroxy-1-(4-chlorophenyl)ethyl)-1H-1,2,3-triazol-4-yl)methyl)-1H-indole] | – | 30 ± 0.6 | – | 42 ± 4.6 | 32 ± 0.2 | – | – | 31 ± 0.9 | – | 32 | – | 1.4 |
| OC(Cn1cc(Cn2ccc3ccccc32)nn1)c1ccc(Cl)cc1 (stereo not shown) [Compound 28b, 1-((1-(2-Hydroxy-2-(4-chlorophenyl)ethyl)-1H-1,2,3-triazol-4-yl)methyl)-1H-indol] | – | 35 ± 19.8 | – | > 100 | 66 ± 2.7 | – | – | 46 ± 18.4 | – | 35 ± 16.2 | – | >2.9 |
| OCC(c1ccc(C(F)(F)F)cc1)n1cc(Cn2ccc3ccccc32)nn1 (stereo not shown) [Compound 30a, 1-((1-(2-Hydroxy-1-(4-(trifluoromethyl)phenyl)ethyl)-1H-1,2,3-triazol-4-yl)methyl)-1H-indole] | – | 9 ± 3.3 | – | 34 ± 1.6 | 32 ± 3.6 | – | – | 28 ± 1.9 | – | 21 ± 1.6 | – | 3.7 |
| OC(Cn1cc(Cn2ccc3ccccc32)nn1)c1ccc(C(F)(F)F)cc1 (stereo not shown) [Compound 30b, 1-((1-(2-Hydroxy-2-(4-(trifluoromethyl)phenyl)ethyl)-1H-1,2,3-triazol-4-yl)methyl)-1H-indol] | – | 27 ± 0.7 | – | 18 ± 0.6 | 65 ± 2.4 | – | – | 51 ± 15.3 | – | 22 ± 3.4 | – | 0.7 |
| OCC(c1ccc(F)cc1)n1cc(Cn2cnc3ccccc32)nn1 (stereo not shown) [Compound 32a, 1-((1-(2-Hydroxy-1-(4-fluorophenyl)ethyl)-1H-1,2,3-triazol-4-yl)methyl)-1H-benzimidazole] | – | > 100 | – | > 100 | 74 ± 0.6 | – | – | > 100 | – | 98 ± 2.8 | – | – |
| OC(Cn1cc(Cn2cnc3ccccc32)nn1)c1ccc(F)cc1 (stereo not shown) [Compound 32b, 1-((1-(2-Hydroxy-2-(4-fluorphenyl)ethyl)-1H-1,2,3-triazol-4-yl)methyl)-1H-benzimidazole] | – | > 100 | – | > 100 | > 100 | – | – | > 100 | – | > 100 | – | – |
| OCC(c1ccc(Cl)cc1)n1cc(Cn2cnc3ccccc32)nn1 (stereo not shown) [Compound 33a, 1-((1-(2-Hydroxy-1-(4-chlorophenyl)ethyl)-1H-1,2,3-triazol-4-yl)methyl)-1H-benzimidazole] | – | 34 ± 2.3 | – | > 100 | 50 ± 12.8 | – | – | 63 ± 9.8 | – | 40 ± 1.8 | – | >2.9 |
| OC(Cn1cc(Cn2cnc3ccccc32)nn1)c1ccc(Cl)cc1 (stereo not shown) [Compound 33b, 1-((1-(2-Hydroxy-2-(4-chlorophenyl)ethyl)-1H-1,2,3-triazol-4-yl)methyl)-1H-benzimidazole] | – | 69 ± 12.1 | – | 64 ± 6.17 | > 100 | – | – | > 100 | – | 70 ± 20.5 | – | 0.9 |
| OCC(c1ccc(C(F)(F)F)cc1)n1cc(Cn2cnc3ccccc32)nn1 (stereo not shown) [Compound 35a, 1-((1-(2-Hydroxy-1-(4-(trifluoromethyl)phenyl)ethyl)-1H-1,2,3-triazol-4-yl)methyl)-1H-benzimidazole] | – | 27 ± 0.7 | – | > 100 | 59 ± 4.6 | – | – | 61 ± 0.7 | – | 30 ± 0.9 | – | >3.7 |
| OC(Cn1cc(Cn2cnc3ccccc32)nn1)c1ccc(C(F)(F)F)cc1 (stereo not shown) [Compound 35b, 1-((1-(2-Hydroxy-2-(4-(trifluoromethyl)phenyl)ethyl)-1H-1,2,3-triazol-4-yl)methyl)-1H-benzimidazole] | – | 36 ± 1.3 | – | 22 ± 18.1 | 67 ± 3.5 | – | – | 67 ± 2.9 | – | 31 ± 13.7 | – | 0.6 |
| OCC(c1ccccc1)n1cc(Cn2cnc3c(Cl)ncnc32)nn1 (stereo not shown) [Compound 36a, 6-Chloro-9-((1-(2-hydroxy-1-phenylethyl)-1H-1,2,3-triazol-4-yl)methyl)-9H-purine] | – | 60 ± 0.9 | – | > 100 | 55 ± 2.4 | >1.8 | – | 54 ± 7.4 | >1.9 | 53 ± 5.5 | – | – |
| OC(Cn1cc(Cn2cnc3c(Cl)ncnc32)nn1)c1ccccc1 (stereo not shown) [Compound 36b, 6-Chloro-9-((1-(2-hydroxy-2-phenylethyl)-1H-1,2,3-triazol-4-yl)methyl)-9H-purine] | – | 65 ± 18.9 | – | 80 ± 14 | 41 ± 10.6 | 1.9 | – | 61 ± 2.4 | 1.3 | 69 ± 10.6 | – | – |
| OCC(c1ccc(F)cc1)n1cc(Cn2cnc3c(Cl)ncnc32)nn1 (stereo not shown) [Compound 37a, 6-Chloro-9-((1-(2-hydroxy-1-(4-fluorophenyl)ethyl)-1H-1,2,3-triazol-4-yl)methyl)-9H-purine] | – | 50 ± 12.4 | – | 64 ± 6.3 | 37 ± 12.9 | 1.7 | – | 41 ± 2.3 | 1.6 | 38 ± 15.7 | – | – |
| OC(Cn1cc(Cn2cnc3c(Cl)ncnc32)nn1)c1ccc(F)cc1 (stereo not shown) [Compound 37b, 6-Chloro-9-((1-(2-hydroxy-2-(4-fluorophenyl)ethyl)-1H-1,2,3-triazol-4-yl)methyl)-9H-purine] | – | 56 ± 5.5 | – | 59 ± 9.2 | 54 ± 6 | 1.1 | – | 46 ± 9.9 | 1.3 | 49 ± 9.9 | – | – |
| OCC(c1ccc(Cl)cc1)n1cc(Cn2cnc3c(Cl)ncnc32)nn1 (stereo not shown) [Compound 38a, 6-Chloro-9-((1-(2-hydroxy-1-(4-chlorophenyl)ethyl)-1H-1,2,3-triazol-4-yl)methyl)-9H-purine] | – | 48 ± 4.9 | – | 41 ± 16.3 | 34 ± 4.2 | 1.2 | – | 33 ± 6.06 | 1.2 | 24 ± 8.8 | – | – |
